Columns and labels:
[1] = molecular target: T1, Retinoic acid receptor beta (Homo sapiens, UniProt P10826); assay: Effective concentration against Retinoic acid receptor beta
T1 sequence (P10826 whole entry): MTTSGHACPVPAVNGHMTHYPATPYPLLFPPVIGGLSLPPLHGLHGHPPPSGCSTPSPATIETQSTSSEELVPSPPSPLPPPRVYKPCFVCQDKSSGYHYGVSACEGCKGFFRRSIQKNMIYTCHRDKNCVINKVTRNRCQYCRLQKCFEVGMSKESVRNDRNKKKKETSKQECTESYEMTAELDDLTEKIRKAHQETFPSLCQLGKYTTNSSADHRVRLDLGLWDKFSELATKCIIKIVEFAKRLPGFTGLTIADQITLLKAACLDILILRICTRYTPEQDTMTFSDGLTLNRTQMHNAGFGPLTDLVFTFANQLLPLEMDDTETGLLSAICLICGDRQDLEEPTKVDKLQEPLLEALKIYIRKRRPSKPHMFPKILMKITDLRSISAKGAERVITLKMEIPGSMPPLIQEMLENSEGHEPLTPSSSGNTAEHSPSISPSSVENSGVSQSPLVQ

[2] = molecular target: T2, Retinoic acid receptor alpha (Homo sapiens, UniProt P10276); assay: Effective concentration against RAR-alpha receptor
T2 sequence (P10276 whole entry): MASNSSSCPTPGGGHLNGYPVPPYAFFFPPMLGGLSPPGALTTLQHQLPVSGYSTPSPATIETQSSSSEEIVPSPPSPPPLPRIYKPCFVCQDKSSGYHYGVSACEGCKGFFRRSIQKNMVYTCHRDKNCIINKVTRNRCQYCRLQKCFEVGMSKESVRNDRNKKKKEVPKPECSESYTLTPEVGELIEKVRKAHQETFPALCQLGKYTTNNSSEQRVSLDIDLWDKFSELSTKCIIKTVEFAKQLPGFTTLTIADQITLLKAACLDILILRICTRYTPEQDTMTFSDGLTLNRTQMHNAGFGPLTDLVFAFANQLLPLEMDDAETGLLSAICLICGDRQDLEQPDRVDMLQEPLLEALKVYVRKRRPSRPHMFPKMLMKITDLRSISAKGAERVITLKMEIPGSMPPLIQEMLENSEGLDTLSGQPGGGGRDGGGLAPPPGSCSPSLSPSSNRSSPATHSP

[3] = molecular target: T3, Retinoic acid receptor gamma (Homo sapiens, UniProt P13631); assay: Effective concentration against RAR-gamma receptor
T3 sequence (P13631 whole entry): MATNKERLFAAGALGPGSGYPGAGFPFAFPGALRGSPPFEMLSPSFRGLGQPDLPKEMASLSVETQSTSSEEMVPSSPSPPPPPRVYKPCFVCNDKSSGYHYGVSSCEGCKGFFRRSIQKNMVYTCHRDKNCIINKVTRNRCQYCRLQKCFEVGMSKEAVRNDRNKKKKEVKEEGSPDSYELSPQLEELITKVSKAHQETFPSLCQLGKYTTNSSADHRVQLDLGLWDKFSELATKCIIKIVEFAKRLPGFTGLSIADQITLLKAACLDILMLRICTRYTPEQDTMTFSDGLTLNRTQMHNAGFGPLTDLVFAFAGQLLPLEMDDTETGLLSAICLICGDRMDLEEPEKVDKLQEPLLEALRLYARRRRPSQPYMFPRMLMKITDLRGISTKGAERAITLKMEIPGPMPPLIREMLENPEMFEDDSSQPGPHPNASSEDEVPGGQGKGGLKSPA

[4] = molecular target: T1, Retinoic acid receptor beta; assay: Effective concentration against RAR-beta receptor
[5] = molecular target: T4, Retinoic acid receptor RXR-alpha (Homo sapiens, UniProt P19793); assay: Effective concentration against RXR-alpha receptor
T4 sequence (P19793 whole entry): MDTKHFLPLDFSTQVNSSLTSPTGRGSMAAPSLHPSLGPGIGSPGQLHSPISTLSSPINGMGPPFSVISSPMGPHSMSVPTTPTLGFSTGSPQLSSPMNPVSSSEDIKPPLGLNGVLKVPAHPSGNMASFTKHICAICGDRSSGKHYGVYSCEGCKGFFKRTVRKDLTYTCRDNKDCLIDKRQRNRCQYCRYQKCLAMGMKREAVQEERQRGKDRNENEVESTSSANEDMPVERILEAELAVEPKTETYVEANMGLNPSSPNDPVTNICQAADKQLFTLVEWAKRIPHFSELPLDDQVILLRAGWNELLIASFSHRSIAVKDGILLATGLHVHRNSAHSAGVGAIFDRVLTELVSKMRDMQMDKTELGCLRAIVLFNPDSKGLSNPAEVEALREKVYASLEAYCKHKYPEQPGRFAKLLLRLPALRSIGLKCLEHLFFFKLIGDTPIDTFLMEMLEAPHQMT

| Compound | EC50 [1] | EC50 [2] | EC50 [3] | EC50 [4] | EC50 [5] |
| --- | --- | --- | --- | --- | --- |
| CC1(C)CCC(C)(C)c2cc(-c3ccccc3-c3ccc(C(=O)O)cc3)ccc21 | 3200 nM |  | 100 nM |  | 2800 nM |
| CC1=C(/C=C/C(C)=C\c2ccc(C(=O)O)cc2)C(C)(C)CCC1 | 1800 nM | 5000 nM | 2000 nM |  |  |
| C/C(=C/c1ccc(C(=O)O)cc1)c1ccc2c(c1)C(C)(C)CCC2(C)C |  |  |  |  | 2700 nM |
| C/C(=C/c1ccc2c(c1)C(C)(C)CCS2)c1ccc(C(=O)O)cc1 | 1500 nM | 2100 nM | 1500 nM |  | 2800 nM |
| C/C(=C/c1ccc2c(c1)C(C)(C)CCC2(C)C)c1ccc(C(=O)O)cc1 | 1900 nM |  | 2700 nM |  | 1100 nM |
| C/C(=C/c1ccc(C(=O)O)cc1)c1ccc2c(c1)C(C)(C)CCS2 | 250 nM | 2300 nM | 1100 nM |  |  |
| CC1=C(CC/C(C)=C\c2ccc(C(=O)O)cc2)C(C)(C)CCC1 | 2000 nM |  | 1300 nM |  |  |

Next, values leading:

| EC50 [1] | EC50 [2] | EC50 [3] | EC50 [4] | EC50 [5] | Compound |
| --- | --- | --- | --- | --- | --- |
| 5 nM | 240 nM | 35 nM |  |  | CC1=C(/C=C/C(C)=C/c2ccc(C(=O)O)cc2)C(C)(C)CCC1 |
|  |  | 550 nM | 1100 nM |  | C/C(=C\c1ccc(C(=O)O)cc1)c1ccc2c(c1)C1CCC2C1 (stereo not drawn) |
| 25 nM | 37 nM | 19 nM |  |  | C/C(=C\c1ccc2c(c1)C(C)(C)CCC2(C)C)c1ccc(C(=O)O)cc1 |
| 15 nM | 27 nM | 30 nM |  |  | C/C(=C\c1ccc(C(=O)O)cc1)c1ccc2c(c1)C(C)(C)CCS2 |
|  |  | 70 nM |  |  | C/C(=C/c1ccc(C(=O)O)cc1)c1ccc2c(c1)C1CCC2C1 (stereo not drawn) |
| 20 nM | 550 nM | 210 nM |  | 1500 nM | CC1=C(CC/C(C)=C/c2ccc(C(=O)O)cc2)C(C)(C)CCC1 |
| 40 nM | 45 nM | 47 nM |  |  | C/C(=C\c1ccc2c(c1)C(C)(C)CCS2)c1ccc(C(=O)O)cc1 |
